Patent US9573964B2, “Oxygen linked pyrimidine derivatives” (CTI BIOPHARMA CORP., priority 2005, dated 2017)

How the values were obtained:
FLT3 = target: T1, FLT3 (Homo sapiens, UniProt P36888); assay: In vitro kinase activity assay (PKLight), FLT3; format: biochemical
T1 construct: purchased Invitrogen PV3182
T1 sequence (P36888 27-993): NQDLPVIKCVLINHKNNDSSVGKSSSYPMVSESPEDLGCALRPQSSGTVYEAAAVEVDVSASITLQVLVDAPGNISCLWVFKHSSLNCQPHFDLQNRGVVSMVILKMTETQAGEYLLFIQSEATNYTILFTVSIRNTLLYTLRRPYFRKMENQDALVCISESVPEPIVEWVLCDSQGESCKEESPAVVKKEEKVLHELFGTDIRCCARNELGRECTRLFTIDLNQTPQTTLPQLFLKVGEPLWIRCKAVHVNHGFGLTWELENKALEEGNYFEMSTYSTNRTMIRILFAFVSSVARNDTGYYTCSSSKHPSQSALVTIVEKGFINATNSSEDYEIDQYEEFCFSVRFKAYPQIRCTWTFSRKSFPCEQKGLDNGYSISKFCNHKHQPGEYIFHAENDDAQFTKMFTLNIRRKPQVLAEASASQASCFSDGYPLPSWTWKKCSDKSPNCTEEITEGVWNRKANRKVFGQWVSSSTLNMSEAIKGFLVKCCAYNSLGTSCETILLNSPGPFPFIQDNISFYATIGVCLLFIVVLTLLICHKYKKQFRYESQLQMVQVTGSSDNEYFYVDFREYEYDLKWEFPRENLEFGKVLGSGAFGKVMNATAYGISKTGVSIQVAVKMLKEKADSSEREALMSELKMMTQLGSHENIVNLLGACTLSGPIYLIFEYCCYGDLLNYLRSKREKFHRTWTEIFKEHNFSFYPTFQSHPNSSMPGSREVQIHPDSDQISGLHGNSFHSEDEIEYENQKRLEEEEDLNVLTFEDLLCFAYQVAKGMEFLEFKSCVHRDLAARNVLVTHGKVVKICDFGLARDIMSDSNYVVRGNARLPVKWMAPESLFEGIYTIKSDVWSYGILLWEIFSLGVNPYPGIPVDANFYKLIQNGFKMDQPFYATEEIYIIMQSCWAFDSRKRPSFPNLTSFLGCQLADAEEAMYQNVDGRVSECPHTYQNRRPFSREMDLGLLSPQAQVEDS
Procedure: (§1) All assays were carried out in 384-well white microtiter plates using the PKLight assay system from Cambrex (East Rutherford, N.J.). This assay platform is essentially a luminometric assay for the detection of ATP in the reaction using a luciferase-coupled reaction. For CDK2/Cyclin A assay, the reaction mixture consisted of the following components in 25 μL assay buffer (50 mM Hepes pH 7.5, 10 mM MgCl2, 5 mM MnCl2, 5 mM BGP, 1 mM DTT, 0.1 mM sodium orthovanadate), 1.4 μg/mL of CDK2/Cyclin A complex, 0.5 μM of RbING substrate (Invitrogen, Cat #PV2939) and 0.5 μM of ATP. The compounds were tested at 8 concentrations prepared from 4-fold serial dilution starting at 10 μM. The reaction was incubated at room temperature for 2 hr. 13 μL of PKLight ATP detection reagent was added and the reaction was incubated for 10 min. Luminescence signals were detected on a multi-label plate reader (Victor^2 V 1420, Perkin-Elmer). The other kinase assays were identical except for the following differences in reagents. For FLT3 assays, the reaction contained 2.0 μg/mL FLT3 enzyme, 5 μM of poly(Glu,Tyr) substrate (Sigma, Cat #P0275) and 4 μM of ATP. For JAK2 assays, the reaction contained 0.6 μg/mL of JAK2 enzyme, 2 μM of poly(Glu,Ala,Tyr) substrate (Sigma, Cat #P3899) and 0.2 μM of ATP. […] The analytical software, Prism 4.0 (GraphPad Software Pte Ltd) was used to generate IC50 values from the data.

[1] = test system: HL60 (acute myeloid leukemia cell line); assay: Cell-based proliferation assay for GI50, HL60; details: Homo sapiens, HL-60; HL60 cells, 96 h treatment
Procedure: (§2) Human cancer cell lines HL60 (acute myeloid leukemia cell line), Colo205 (colon adenocarcinoma cell line), HEL92.1.7 (erythroleukemia cell line) and MV4-11 (acute myeloid leukemia cell line) were obtained from ATCC. They were cultivated in the media according to the ATCC work instructions. Colo205 cells were seeded in 96-wells plate at 5000 cells per well. HEL92.1.7 and MV4-11 cells were seeded at 6000 cells per well while HL60 cells were seeded at 8000 cells per well in 96 well plate. The plates were incubated at 37° C., 5% CO2, for 24 h. Cells were treated with compounds at various concentrations for 96 h. Cell growth was then monitored using Celltiter96 Aqueous One Solution Cell Proliferation Assay from Promega (Madison Wis.). Dose response curves were plotted to determine GI50 values for the compounds using XL-fit (ID Business Solution, Emeryville, Calif.).

CDK2/CyclinA = target: T2, CDK2/CyclinA (Homo sapiens, UniProt P24941); assay: In vitro kinase activity assay (PKLight), CDK2/Cyclin A; format: biochemical; details: 0.5 μM ATP
T2 construct: purchased Invitrogen PV3267
Procedure: The recombinant enzymes (CDK2/CyclinA, FLT3, JAK2 and JAK2 V617F) were purchased from Invitrogen (Cat #PV3267, 3182, 4210 and 4347 respectively). All assays were carried out in 384-well white microtiter plates using the PKLight assay system from Cambrex (East Rutherford, N.J.). This assay platform is essentially a luminometric assay for the detection of ATP in the reaction using a luciferase-coupled reaction. For CDK2/Cyclin A assay, the reaction mixture consisted of the following components in 25 μL assay buffer (50 mM Hepes pH 7.5, 10 mM MgCl2, 5 mM MnCl2, 5 mM BGP, 1 mM DTT, 0.1 mM sodium orthovanadate), 1.4 μg/mL of CDK2/Cyclin A complex, 0.5 μM of RbING substrate (Invitrogen, Cat #PV2939) and 0.5 μM of ATP. The compounds were tested at 8 concentrations prepared from 4-fold serial dilution starting at 10 μM. The reaction was incubated at room temperature for 2 hr. 13 μL of PKLight ATP detection reagent was added and the reaction was incubated for 10 min. Luminescence signals were detected on a multi-label plate reader (Victor^2 V 1420, Perkin-Elmer). The other kinase assays were identical except for the following differences in reagents. For FLT3 assays, the reaction contained 2.0 μg/mL FLT3 enzyme, 5 μM of poly(Glu,Tyr) substrate (Sigma, Cat #P0275) and 4 μM of ATP. For JAK2 assays, the reaction contained 0.6 μg/mL of JAK2 enzyme, 2 μM of poly(Glu,Ala,Tyr) substrate (Sigma, Cat #P3899) and 0.2 μM of ATP. For JAK2 V617F mutant assays, the reaction contained 8.0 μg/mL of JAK2 mutant enzyme, 2 μM of poly(Glu,Ala,Tyr) substrate (Sigma, Cat #P3899) and 0.2 μM of ATP. The analytical software, Prism 4.0 (GraphPad Software Pte Ltd) was used to generate IC50 values from the data.

[2] = test system: MV4-11 (acute myeloid leukemia cell line); assay: Cell-based proliferation assay for GI50, MV4-11; details: Homo sapiens; MV4-11 cells, 96 h treatment
Procedure: as §2

[3] = test system: HEL92.1.7 (erythroleukemia cell line); assay: Cell-based proliferation assay for GI50, HEL92.1.7; details: Homo sapiens, HEL 92.1.7; HEL92.1.7 cells, 96 h treatment
Procedure: as §2

JAK2 = target: T3, JAK2 (Homo sapiens, UniProt O60674); assay: In vitro kinase activity assay (PKLight), JAK2; format: biochemical
T3 construct: purchased Invitrogen PV4210
T3 sequence (O60674 whole entry): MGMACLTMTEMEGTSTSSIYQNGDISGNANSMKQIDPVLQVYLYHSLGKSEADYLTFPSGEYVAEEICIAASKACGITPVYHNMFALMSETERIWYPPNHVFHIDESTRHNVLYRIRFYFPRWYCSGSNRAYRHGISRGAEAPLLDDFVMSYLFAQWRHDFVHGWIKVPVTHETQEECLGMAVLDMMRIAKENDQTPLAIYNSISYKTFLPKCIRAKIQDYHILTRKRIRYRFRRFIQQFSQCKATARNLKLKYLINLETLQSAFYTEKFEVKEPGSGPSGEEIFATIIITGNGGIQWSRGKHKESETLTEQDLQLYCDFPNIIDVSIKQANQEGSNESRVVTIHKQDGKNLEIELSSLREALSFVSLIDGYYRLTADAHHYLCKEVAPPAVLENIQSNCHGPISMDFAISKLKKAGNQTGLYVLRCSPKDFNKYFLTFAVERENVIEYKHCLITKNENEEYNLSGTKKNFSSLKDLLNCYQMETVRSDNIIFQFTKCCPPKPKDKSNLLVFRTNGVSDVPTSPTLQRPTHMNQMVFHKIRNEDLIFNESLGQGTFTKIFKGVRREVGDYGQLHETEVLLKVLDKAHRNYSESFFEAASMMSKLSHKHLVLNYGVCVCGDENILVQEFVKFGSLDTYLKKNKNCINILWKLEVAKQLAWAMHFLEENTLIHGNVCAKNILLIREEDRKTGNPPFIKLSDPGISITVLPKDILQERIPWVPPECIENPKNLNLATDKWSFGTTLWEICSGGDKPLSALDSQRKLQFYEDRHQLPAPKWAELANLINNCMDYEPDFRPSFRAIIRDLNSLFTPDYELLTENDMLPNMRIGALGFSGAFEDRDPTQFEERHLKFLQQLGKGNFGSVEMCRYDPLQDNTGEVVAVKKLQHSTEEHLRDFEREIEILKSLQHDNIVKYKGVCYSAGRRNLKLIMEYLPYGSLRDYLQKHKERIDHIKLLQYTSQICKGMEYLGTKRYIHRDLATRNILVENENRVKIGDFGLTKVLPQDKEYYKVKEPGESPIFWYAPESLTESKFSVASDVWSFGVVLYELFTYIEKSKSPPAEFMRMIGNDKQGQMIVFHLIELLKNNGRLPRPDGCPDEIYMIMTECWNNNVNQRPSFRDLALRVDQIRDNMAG
Procedure: as §1

[4] = test system: Colo205 (colon adenocarcinoma cell line); assay: Cell-based proliferation assay for GI50, Colo205; details: Homo sapiens, COLO 205; Colo205 cells, 96 h treatment
Procedure: as §2

JAK2 V617F = target: T4, JAK2 V617F (Homo sapiens, UniProt O60674, V617F); assay: In vitro kinase activity assay (PKLight), JAK2 V617F mutant; format: biochemical
T4 construct: purchased Invitrogen PV4347
T4 sequence (O60674 whole entry V617F): as the sequence (O60674 whole entry) above, with V617F counted along it
Procedure: as §1

| IC50 (FLT3) [nM] | GI50 [1] [nM] | IC50 (CDK2/CyclinA) [nM] | GI50 [2] [nM] | GI50 [3] [nM] | IC50 (JAK2) [nM] | GI50 [4] [nM] | IC50 (JAK2 V617F) [nM] | Structure (SMILES) |
| --- | --- | --- | --- | --- | --- | --- | --- | --- |
| ≤ 1000 | 1000 to 5000 | > 5000 | ≤ 1000 | 1000 to 5000 | ≤ 1000 | – | – | C1=C/COCc2cc(ccc2N2CCOCC2)Nc2nccc(n2)-c2cccc(c2)COC/1 [Compound 33] |
| ≤ 1000 | 1000 to 5000 | > 5000 | ≤ 1000 | > 5000 | ≤ 1000 | > 5000 | ≤ 1000 | CCN(CC)CCOc1ccc2cc1COC/C=C/CCOc1cc(ccc1OC)-c1ccnc(n1)N2 [Compound 20] |
| ≤ 1000 | ≤ 1000 | > 5000 | ≤ 1000 | ≤ 1000 | ≤ 1000 | ≤ 1000 | ≤ 1000 | CCN(CC)CCOc1ccc2cc1COC/C=C/CCOc1cccc(c1)-c1ccnc(n1)N2 [Compound 19] |
| – | ≤ 1000 | 1000 to 5000 | ≤ 1000 | 1000 to 5000 | – | 1000 to 5000 | – | C1=C/COCc2cc(ccc2OCCN2CCCC2)Nc2nccc(n2)-c2cccc(c2)COC/1 [Compound 13] |
| ≤ 1000 | ≤ 1000 | > 5000 | ≤ 1000 | 1000 to 5000 | ≤ 1000 | – | – | C1=C/COCc2cc(ccc2OCCN2CCCC2)Nc2nccc(n2)-c2coc(c2)COC/1 [Compound 50] |
| ≤ 1000 | ≤ 1000 | 1000 to 5000 | ≤ 1000 | 1000 to 5000 | ≤ 1000 | – | – | c1cc2cc(c1)-c1ccnc(n1)Nc1ccc(OCCN3CCCC3)c(c1)COCC1CC1COC2 (stereo not shown) [Compound 53] |
| ≤ 1000 | ≤ 1000 | 1000 to 5000 | ≤ 1000 | 1000 to 5000 | ≤ 1000 | – | – | COc1cc2cc(c1OCCN1CCCC1)COC/C=C/COCc1cccc(c1)-c1ccnc(n1)N2 [Compound 32] |
| ≤ 1000 | ≤ 1000 | > 5000 | ≤ 1000 | ≤ 1000 | ≤ 1000 | – | – | C1=C/COCc2cc(ccc2OCCN2CCCC2)Nc2nccc(n2)-c2csc(c2)COC/1 [Compound 52] |
| ≤ 1000 | ≤ 1000 | > 5000 | > 5000 | > 5000 | > 5000 | > 5000 | – | COc1ccc2cc1COC/C=C\COc1cccc(c1)-c1ccnc(n1)N2 [Compound 7] |
| ≤ 1000 | 1000 to 5000 | ≤ 1000 | – | – | ≤ 1000 | 1000 to 5000 | – | COc1ccc2cc1COC/C=C/COc1cccc(c1)-c1ccnc(n1)N2 [Compound 6] |
| ≤ 1000 | ≤ 1000 | > 5000 | ≤ 1000 | ≤ 1000 | ≤ 1000 | 1000 to 5000 | ≤ 1000 | COc1ccc2cc1COC/C=C/COCc1cc(ccc1OCCN1CCCC1)Nc1nccc-2n1 [Compound 14] |
| ≤ 1000 | ≤ 1000 | > 5000 | ≤ 1000 | ≤ 1000 | ≤ 1000 | ≤ 1000 | – | C1=C2COC/C=C/COCc3cc(ccc3OCCN3CCCC3)Nc3nccc(n3)C(=C1)S2 [Compound 48] |
| ≤ 1000 | ≤ 1000 | 1000 to 5000 | ≤ 1000 | 1000 to 5000 | ≤ 1000 | – | – | C1=C/COCc2cc(ccc2OCCN2CCCC2)Nc2nccc(n2)-c2cncc(c2)COC/1 [Compound 56] |
| ≤ 1000 | ≤ 1000 | > 5000 | ≤ 1000 | 1000 to 5000 | ≤ 1000 | – | – | C1=C2COC/C=C/COCc3cc(ccc3OCCN3CCCC3)Nc3nccc(n3)C(=C1)O2 [Compound 38] |
| ≤ 1000 | ≤ 1000 | > 5000 | ≤ 1000 | ≤ 1000 | ≤ 1000 | – | – | CN1CCN(c2ccc3cc2COC/C=C/COCc2cccc(c2)-c2ccnc(n2)N3)CC1 [Compound 40] |
| ≤ 1000 | 1000 to 5000 | > 5000 | ≤ 1000 | 1000 to 5000 | ≤ 1000 | – | – | C1=C/COCc2cc(ccc2OCCN2CCCC2)Nc2nccc(n2)-c2cc(co2)COC/1 [Compound 55] |
| ≤ 1000 | ≤ 1000 | 1000 to 5000 | ≤ 1000 | 1000 to 5000 | ≤ 1000 | – | – | Fc1ccc2cc1COC/C=C/COCc1cc(ccc1OCCN1CCCC1)Nc1nccc-2n1 [Compound 46] |
| ≤ 1000 | ≤ 1000 | > 5000 | ≤ 1000 | 1000 to 5000 | ≤ 1000 | – | ≤ 1000 | CCN(CC)CCOc1ccc2cc1COC/C=C/CCOc1cccc(c1)-c1nc(ncc1C)N2 [Compound 29] |
| ≤ 1000 | ≤ 1000 | 1000 to 5000 | ≤ 1000 | 1000 to 5000 | ≤ 1000 | – | – | Fc1cc2cc(c1)-c1ccnc(n1)Nc1ccc(OCCN3CCCC3)c(c1)COC/C=C/CCO2 [Compound 36] |
